# Results taken from patent US20100331305A1, “OXO-HETEROCYCLE FUSED PYRIMIDINE COMPOUNDS, COMPOSITIONS AND METHODS OF USE” (Genentech, Inc., priority 2009, published 2010).
# “And” between values parts separate entries of the source, which are not always exact repeats. Identical values can stand only once.
# Biological target: mTOR enzyme (mTOR(1360-2549)+GBL) (Homo sapiens, UniProt P42345)
# Assay: In vitro mTOR kinase assay (TR-FRET)
# Type: biochemical
# Conditions: 0.25 nM mTOR+GBL, 8 uM ATP; values tied to compounds by order of Table 1; 'x or y' = two alternative values for separated diastereomers of unassigned stereochemistry; read-out: activity level (Ki) in the mTOR kinase assay
# Source text: a. In Vitro mTOR Kinase Assay
# The reaction is stopped by an addition of a Terbium-labeled phospho-specific antibody, e.g., Tb-labeled anti-p4E-BP1 T37/T46, (Invitrogen, product #PR8835A), EDTA, and TR-FRET buffer solution (Invitrogen, Product #PR3756B). Product formation is detected by way of time-resolved fluorescence resonance energy transfer (TR-FRET), which occurs when the phosphorylated substrate and labeled antibody are in close proximity due to phospho-specific binding. Enzymatic activity is measured as an increase in TR-FRET signal using a Perkin Elmer Envision plate reader.
# Compound activity is tested in 10 point dose curves starting at the highest final concentration of 10 uM. They are serially diluted in 100% DMSO prior to further dilution with assay buffer. […] 8 μL of solution containing 2 nM Tb-anti-p4E-BP1 antibody & 10 mM EDTA diluted TR-FRET buffer is then added and incubated for 30 minutes to stop the reaction. The plate is scanned with the Envision plate reader. Ki values are calculated in Assay Explorer using the Morrison ATP-competitive tight binding equation for Ki apparent determination.
# Sequence of mTOR enzyme (mTOR(1360-2549)+GBL) (P42345 1360-2549, species assumed): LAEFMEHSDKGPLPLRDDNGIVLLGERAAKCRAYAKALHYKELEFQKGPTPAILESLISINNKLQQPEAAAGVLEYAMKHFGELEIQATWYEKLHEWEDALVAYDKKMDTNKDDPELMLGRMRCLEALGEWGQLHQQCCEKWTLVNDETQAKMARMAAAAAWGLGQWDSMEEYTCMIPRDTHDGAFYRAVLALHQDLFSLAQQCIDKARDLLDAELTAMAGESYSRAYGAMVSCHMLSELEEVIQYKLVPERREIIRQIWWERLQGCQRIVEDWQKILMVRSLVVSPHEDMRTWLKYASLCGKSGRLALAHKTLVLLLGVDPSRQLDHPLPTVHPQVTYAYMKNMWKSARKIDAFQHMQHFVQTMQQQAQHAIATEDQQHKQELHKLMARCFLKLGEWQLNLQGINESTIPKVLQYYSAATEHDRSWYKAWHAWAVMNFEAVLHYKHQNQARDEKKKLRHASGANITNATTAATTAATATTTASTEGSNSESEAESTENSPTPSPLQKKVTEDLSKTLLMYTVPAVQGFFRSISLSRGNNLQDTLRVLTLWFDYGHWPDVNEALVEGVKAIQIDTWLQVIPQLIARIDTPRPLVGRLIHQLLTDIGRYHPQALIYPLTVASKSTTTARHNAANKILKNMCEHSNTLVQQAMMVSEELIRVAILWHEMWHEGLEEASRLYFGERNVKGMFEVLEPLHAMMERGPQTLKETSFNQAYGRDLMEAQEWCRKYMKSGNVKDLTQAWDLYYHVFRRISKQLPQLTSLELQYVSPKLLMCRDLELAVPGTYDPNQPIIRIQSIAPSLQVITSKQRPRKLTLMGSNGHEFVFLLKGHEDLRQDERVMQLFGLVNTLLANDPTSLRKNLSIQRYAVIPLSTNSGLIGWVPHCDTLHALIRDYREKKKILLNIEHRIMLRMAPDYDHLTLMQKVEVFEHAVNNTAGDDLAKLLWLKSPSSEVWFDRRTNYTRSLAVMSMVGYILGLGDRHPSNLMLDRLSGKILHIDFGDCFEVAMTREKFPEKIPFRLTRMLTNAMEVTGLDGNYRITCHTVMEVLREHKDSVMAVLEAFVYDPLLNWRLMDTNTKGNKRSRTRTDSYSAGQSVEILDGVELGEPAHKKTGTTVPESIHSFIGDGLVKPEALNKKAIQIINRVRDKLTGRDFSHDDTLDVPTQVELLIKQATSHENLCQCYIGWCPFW
# Sequence of mTOR enzyme (mTOR(1360-2549)+GBL) (Q9BVC4 whole entry partner, species assumed): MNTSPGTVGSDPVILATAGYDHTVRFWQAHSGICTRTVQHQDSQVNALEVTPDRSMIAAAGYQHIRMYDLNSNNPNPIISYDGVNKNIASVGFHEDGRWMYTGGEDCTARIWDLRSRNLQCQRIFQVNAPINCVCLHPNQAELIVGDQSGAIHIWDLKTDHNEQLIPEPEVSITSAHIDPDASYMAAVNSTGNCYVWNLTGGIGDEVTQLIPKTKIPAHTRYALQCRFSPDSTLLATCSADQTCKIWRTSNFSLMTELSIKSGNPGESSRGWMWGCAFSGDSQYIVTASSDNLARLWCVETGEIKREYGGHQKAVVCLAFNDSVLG
row,Structure (SMILES),Ki
1,"CC1COCCN1c1nc(-c2ccc(NC(=O)NC3COC3)cc2)nc2c1C1CCC(C2)O1 (single isomer, unassigned) [Example 63 dp^2]",10 nM and 2 nM
2,"CC1(C)OCc2c(N3[C@@H]4CC[C@H]3COC4)nc(-c3cnc(N)nc3)nc21 [Example 106, 5-(4-((1R,5S)-3-oxa-8-azabicyclo[3.2.1]octan-8-yl)-7,7-dimethyl-5,7-dihydrofuro[3,4-d]pyrimidin-2-yl)pyrimidin-2-amine]",10 nM
3,"C[C@H]1COCCN1c1nc(-c2ccc3nc(N)[nH]c3c2)nc2c1COC2(C)C [Example 122, (S)-6-(7,7-dimethyl-4-(3-methylmorpholino)-5,7-dihydrofuro[3,4-d]pyrimidin-2-yl)-1H-benzo[d]imidazol-2-amine]",7 nM
4,"CCNC(=O)Nc1ccc(-c2nc3c(c(N4CCOC[C@@H]4C)n2)COC3=O)cc1 [Example 90, (S)-1-ethyl-3-(4-(4-(3-methylmorpholino)-7-oxo-5,7-dihydrofuro[3,4-d]pyrimidin-2-yl)phenyl)urea]",76 nM
5,"COC1CCN(c2nc(-c3ccc(NC(=O)Nc4ccn(C)n4)cc3)nc3c2CCC2(CC2)O3)CC1 [Example 47, 1-(4-(4′-(4-methoxypiperidin-1-yl)-5′,6′-dihydrospiro[cyclopropane-1,7′-pyrano[2,3-d]pyrimidine]-2′-yl)phenyl)-3-(1-methyl-1H-pyrazol-3-yl)urea]",884 nM
6,"C[C@H]1COCCN1c1nc(-c2ccc(NS(C)(=O)=O)cc2)nc2c1COCC2 [Example 38, (S)—N-(4-(4-(3-methylmorpholino)-7,8-dihydro-5H-pyrano[4,3-d]pyrimidin-2-yl)phenyl)methanesulfonamide]",272 nM
7,"C[C@H]1COCCN1c1nc(-c2ccc(NS(=O)(=O)C3CC3)cc2)nc2c1COCC2 [Example 39, (S)—N-(4-(4-(3-methylmorpholino)-7,8-dihydro-5H-pyrano[4,3-d]pyrimidin-2-yl)phenyl)cyclopropanesulfonamide]",270 nM
8,"CC[C@H]1COCCN1c1nc(-c2ccc(N)nc2)nc2c1CCCO2 [Example 129, (S)-5-(4-(3-ethylmorpholino)-6,7-dihydro-5H-pyrano[2,3-d]pyrimidin-2-yl)pyridin-2-amine]",11 nM
9,"CC1(C)OCc2c(N3CCOCC3)nc(-c3ccc4nc(N)[nH]c4c3)nc21 [Example 118, 6-(7,7-dimethyl-4-morpholino-5,7-dihydrofuro[3,4-d]pyrimidin-2-yl)-1H-benzo[d]imidazol-2-amine]",4 nM
10,COCC[C@]1(C)OCc2c(N3CCOC[C@@H]3C)nc(-c3ccc(N)nc3)nc21 [Example 111 hf^1],101 nM and 30 nM
11,"Nc1ncc(-c2nc3c(c(N4[C@@H]5CC[C@H]4COC5)n2)CCCO3)cn1 [Example 133, 5-(4-((1R,5S)-3-oxa-8-azabicyclo[3.2.1]octan-8-yl)-6,7-dihydro-5H-pyrano[2,3-d]pyrimidin-2-yl)pyrimidin-2-amine]",97 nM
12,"COC1CCN(c2nc(-c3ccc(Nc4nccc(=O)[nH]4)cc3)nc3c2CCC2(CC2)O3)CC1 [Example 48, 2-(4-(4′-(4-methoxypiperidin-1-yl)-5′,6′-dihydrospiro[cyclopropane-1,7′-pyrano[2,3-d]pyrimidine]-2′-yl)phenylamino)pyrimidin-4(3H)-one]",392 nM
13,"CCNC(=O)N(CC)C(=O)Nc1ccc(-c2nc3c(c(N4CCOCC4)n2)CCOC3)cc1 [Example 12, 1-ethyl-1-((ethylamino)carbonyl)-3-(4-(4-morpholino-6,8-dihydro-5H-pyrano[3,4-d]pyrimidin-2-yl)phenyl)urea]",4330 nM
14,"CCS(=O)(=O)Nc1ccc(-c2nc3c(c(N4CCOC[C@@H]4C)n2)COCC3)cc1 [Example 40, (S)—N-(4-(4-(3-methylmorpholino)-7,8-dihydro-5H-pyrano[4,3-d]pyrimidin-2-yl)phenyl)ethanesulfonamide]",183 nM
15,"COCC[C@]1(C)OCc2c(N3CCOC[C@@H]3C)nc(-c3cnc(N)nc3)nc21 [Example 101 go (S), 5-((S)-7-(2-methoxyethyl)-7-methyl-4-((S)-3-methylmorpholino)-5,7-dihydrofuro[3,4-d]pyrimidin-2-yl)pyrimidin-2-amine]",393 nM
16,"CCNC(=O)N(CC)C(=O)Nc1ccc(-c2nc3c(c(N4CCOC[C@@H]4C)n2)CCOC3)cc1 [Example 13 am, (S)-1-ethyl-1-((ethylamino)carbonyl)-3-(4-(4-(3-methylmorpholino)-6,8-dihydro-5H-pyrano[3,4-d]pyrimidin-2-yl)phenyl)urea]",1180 nM
17,"Nc1nc2ccc(-c3nc4c(c(N5C[C@H]6CC[C@@H](C5)O6)n3)CCCO4)cc2[nH]1 [Example 61, 6-(4-((1R,5S)-8-oxa-3-azabicyclo[3.2.1]octan-3-yl)-6,7-dihydro-5H-pyrano[2,3-d]pyrimidin-2-yl)-1H-benzo[d]imidazol-2-amine]",12 nM
18,"C[C@H]1COCCN1c1nc(-c2ccc3nc(N)[nH]c3c2)nc2c1CCCO2 [Example 64, (S)-6-(4-(3-methylmorpholino)-6,7-dihydro-5H-pyrano[2,3-d]pyrimidin-2-yl)-1H-benzo[d]imidazol-2-amine]",122 nM
19,"CCNC(=O)Nc1ccc(-c2nc(N3CCOC[C@@H]3C)c3c(n2)[C@@](C)(CCN2CCOCC2)OC3)cc1 [Example 76 eo (R), 1-ethyl-3-(4-((R)-7-methyl-4-((S)-3-methylmorpholino)-7-(2-morpholinoethyl)-5,7-dihydrofuro[3,4-d]pyrimidin-2-yl)phenyl)urea]",15 nM
20,"C[C@H]1COCCN1c1nc(-c2ccc(S(C)(=O)=O)cc2)nc2c1COCC2 [Example 36, (S)-4-(3-methylmorpholino)-2-(4-(methylsulfonyl)phenyl)-7,8-dihydro-5H-pyrano[4,3-d]pyrimidine]",102 nM
21,"CNS(=O)(=O)c1ccc(-c2nc3c(c(N4CCOC[C@@H]4C)n2)COCC3)cc1 [Example 37, (S)—N-methyl-4-(4-(3-methylmorpholino)-7,8-dihydro-5H-pyrano[4,3-d]pyrimidin-2-yl)benzenesulfonamide]",343 nM
22,"Nc1ncc(-c2nc3c(c(N4C[C@H]5CC[C@@H](C4)O5)n2)CCCO3)cn1 [Example 131, 5-(4-((1R,5S)-8-oxa-3-azabicyclo[3.2.1]octan-3-yl)-6,7-dihydro-5H-pyrano[2,3-d]pyrimidin-2-yl)pyrimidin-2-amine]",106 nM
23,"C[C@H]1COCCN1c1nc(-c2cnc(N)nc2)nc2c1CO[C@]2(C)CCOc1ccccc1 [Example 104 gs (R), 5-((R)-7-methyl-4-((S)-3-methylmorpholino)-7-(2-phenoxyethyl)-5,7-dihydrofuro[3,4-d]pyrimidin-2-yl)pyrimidin-2-amine]",297 nM
24,"COCC[C@@]1(C)OCc2c(N3CCOC[C@@H]3C)nc(-c3cnc(N)nc3)nc21 [Example 101 go (R), 5-((R)-7-(2-methoxyethyl)-7-methyl-4-((S)-3-methylmorpholino)-5,7-dihydrofuro[3,4-d]pyrimidin-2-yl)pyrimidin-2-amine]",258 nM
25,"CCNC(=O)Nc1ccc(-c2nc3c(c(N4CCOCC4C)n2)C2CCC(C3)O2)cc1 (single isomer, unassigned) [Example 62 do^2]",6 nM and 2 nM
26,"CCNC(=O)Nc1ccc(-c2nc(N3CCOC[C@@H]3C)c3c(n2)[C@@](C)(CCN2CCC2)OC3)cc1 [Example 79 er (R), 1-(4-((R)-7-(2-(azetidin-1-yl)ethyl)-7-methyl-4-((S)-3-methylmorpholino)-5,7-dihydrofuro[3,4-d]pyrimidin-2-yl)phenyl)-3-ethylurea]",57 nM
27,"COC1CCN(c2nc(-c3ccc(NC(=O)NC4COC4)cc3)nc3c2CCC2(CC2)O3)CC1 [Example 46, 1-(4-(4′-(4-methoxypiperidin-1-yl)-5′,6′-dihydrospiro[cyclopropane-1,7′-pyrano[2,3-d]pyrimidine]-2′-yl)phenyl)-3-(oxetan-3-yl)urea]",620 nM

# System: PC3 cells
# Assay: In vitro cell proliferation assay
# Type: cell-based, human
# Conditions: Homo sapiens, PC-3, with PC3 cells; values tied to compounds by order of Table 1
# Protocol: c. In Vitro Cell Proliferation Assay Efficacy of Formula I compounds were measured by a cell proliferation assay employing the following protocol: 1. An aliquot of 20 μl of cell culture containing about 10^3 cells (PC3 or MDAMB361.1) in medium was deposited in each well of a 384-well, opaque-walled plate. 2. Control wells were prepared containing medium and without cells; Cells were allowed to settle overnight. 3. The compound was added to the experimental wells and incubated for 3 days. 4. The plates were equilibrated to room temperature for approximately 30 minutes. 5. A volume of CellTiter-Glo Reagent equal to the volume of cell culture medium present in each well was added. […] The contents were mixed for 2 minutes on an orbital shaker to induce cell lysis. 7. The plate was incubated at room temperature for 20 minutes to stabilize the luminescence signal. 8. Luminescence was recorded and reported in graphs as RLU=relative luminescence units. Alternatively, cells were seeded at optimal density in a 96 well plate and incubated for 4 days in the presence of test compound. Alamar BlueTM was subsequently added to the assay medium, and cells were incubated for 6 h before reading at 544 nm excitation, 590 nm emission. EC50 values were calculated using a sigmoidal dose response curve fit.
row,Structure (SMILES),EC50
1,"CCNC(=O)Nc1ccc(-c2nc3c(c(N4CCOC[C@@H]4C)n2)COC(CO)C3)cc1 (stereo partly drawn) [1-ethyl-3-(4-(7-(hydroxymethyl)-4-((S)-3-methylmorpholino)-7,8-dihydro-5H-pyrano[4,3-d]pyrimidin-2-yl)phenyl)urea]",445 nM
2,"CCNC(=O)Nc1ccc(-c2nc(N3CCOC[C@@H]3C)c3c(n2)[C@](C)(CCCO)OC3)cc1 [Example 75 el (S), 1-ethyl-3-(4-((S)-7-(3-hydroxypropyl)-7-methyl-4-((S)-3-methylmorpholino)-5,7-dihydrofuro[3,4-d]pyrimidin-2-yl)phenyl)urea]",62 nM
